Series [1] deals with T1, Tyrosine-protein kinase transforming protein Abl (Abelson murine leukemia virus) (UniProt P00521).
T1 sequence (whole entry): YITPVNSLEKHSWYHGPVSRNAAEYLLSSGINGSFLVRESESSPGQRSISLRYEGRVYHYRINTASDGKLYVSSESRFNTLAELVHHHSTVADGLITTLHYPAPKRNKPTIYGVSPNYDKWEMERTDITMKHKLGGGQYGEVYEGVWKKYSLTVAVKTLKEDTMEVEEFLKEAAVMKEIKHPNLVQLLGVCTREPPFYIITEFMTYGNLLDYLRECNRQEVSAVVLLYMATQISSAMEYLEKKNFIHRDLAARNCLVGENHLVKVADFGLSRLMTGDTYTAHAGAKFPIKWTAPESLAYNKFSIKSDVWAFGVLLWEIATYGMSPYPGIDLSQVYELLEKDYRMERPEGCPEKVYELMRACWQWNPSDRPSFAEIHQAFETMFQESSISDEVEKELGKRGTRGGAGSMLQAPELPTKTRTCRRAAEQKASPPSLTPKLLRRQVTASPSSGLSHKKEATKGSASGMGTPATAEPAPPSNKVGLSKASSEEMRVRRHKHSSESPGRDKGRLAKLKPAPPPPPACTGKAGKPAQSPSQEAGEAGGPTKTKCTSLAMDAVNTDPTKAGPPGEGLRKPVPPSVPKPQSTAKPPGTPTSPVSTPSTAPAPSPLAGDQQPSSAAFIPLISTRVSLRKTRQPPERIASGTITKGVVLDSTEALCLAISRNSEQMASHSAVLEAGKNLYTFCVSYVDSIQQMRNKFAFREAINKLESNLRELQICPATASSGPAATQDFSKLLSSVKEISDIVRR
As to the kind of experiment: In vitro percent inhibition of v-Abl tyrosine kinase at 10 uM concentration of compound dissolved in 100% DMSO using 5''-[gamma-33P]-triphosphate.

Series [2] has as its target T2, Inhibitor of nuclear factor kappa-B kinase subunit beta (Homo sapiens) (UniProt O14920).
T2 sequence (whole entry): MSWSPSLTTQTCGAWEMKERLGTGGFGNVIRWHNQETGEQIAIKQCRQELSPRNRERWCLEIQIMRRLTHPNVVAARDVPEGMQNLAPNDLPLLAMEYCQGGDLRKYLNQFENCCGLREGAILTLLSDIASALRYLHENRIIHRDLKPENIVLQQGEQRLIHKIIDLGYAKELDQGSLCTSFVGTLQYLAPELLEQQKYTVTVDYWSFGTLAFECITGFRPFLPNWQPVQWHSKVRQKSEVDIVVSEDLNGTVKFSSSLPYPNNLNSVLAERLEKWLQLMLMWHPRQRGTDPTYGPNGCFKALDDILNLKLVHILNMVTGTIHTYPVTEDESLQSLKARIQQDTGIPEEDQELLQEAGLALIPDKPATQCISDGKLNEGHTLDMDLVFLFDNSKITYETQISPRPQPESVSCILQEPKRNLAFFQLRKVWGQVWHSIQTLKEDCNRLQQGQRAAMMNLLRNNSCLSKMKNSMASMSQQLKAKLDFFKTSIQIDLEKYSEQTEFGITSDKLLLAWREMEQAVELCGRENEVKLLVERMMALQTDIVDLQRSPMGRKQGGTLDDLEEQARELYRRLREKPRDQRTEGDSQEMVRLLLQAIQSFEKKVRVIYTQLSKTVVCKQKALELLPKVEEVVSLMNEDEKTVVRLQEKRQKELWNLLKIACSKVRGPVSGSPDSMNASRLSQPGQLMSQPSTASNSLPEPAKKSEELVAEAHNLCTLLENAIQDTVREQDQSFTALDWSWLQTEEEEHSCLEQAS
Description: In vitro percent inhibition of I-kappa-B-kinase beta at 10 uM concentration of compound dissolved in 100% DMSO using 5''-[gamma-33P]-triphosphate.

The target of series [3] is Ribosomal protein S6 kinase (P70S6K) (Homo sapiens) (UniProt Q9UBS0+P23443). As to the kind of experiment: In vitro percent inhibition of Ribosomal protein S6 kinase at 10 uM concentration of compound dissolved in 100% DMSO using 5''-[gamma-33P]-triphosphate. In kind it is protein-complex assay.
Series [4] deals with Insulin receptor (Homo sapiens) (UniProt P06213). Description: In vitro percent inhibition of Insulin receptor at 10 uM concentration of compound dissolved in 100% DMSO using 5''-[gamma-33P]-triphosphate.
Series [5] is described as follows: In vitro percent inhibition of Ribosomal S6 kinase 1 at 10 uM concentration of compound dissolved in 100% DMSO using 5''-[gamma-33P]-triphosphate.
The target of series [6] is Mast/stem cell growth factor receptor Kit (Homo sapiens) (UniProt P10721). Description: In vitro percent inhibition of v-kit Hardy-Zuckerman 4 feline sarcoma viral oncogene homolog at 10 uM concentration of compound dissolved in 100% DMSO using 5''-[gamma-33P]-triphosphate.
For series [7], the target named is Hepatocyte growth factor receptor (Homo sapiens) (UniProt P08581). Description: In vitro percent inhibition of Met proto-oncogene tyrosine kinase at 10 uM concentration of compound dissolved in 100% DMSO using 5''-[gamma-33P]-triphosphate.
Chain of Hepatocyte growth factor receptor (Homo sapiens) (P08581 whole entry): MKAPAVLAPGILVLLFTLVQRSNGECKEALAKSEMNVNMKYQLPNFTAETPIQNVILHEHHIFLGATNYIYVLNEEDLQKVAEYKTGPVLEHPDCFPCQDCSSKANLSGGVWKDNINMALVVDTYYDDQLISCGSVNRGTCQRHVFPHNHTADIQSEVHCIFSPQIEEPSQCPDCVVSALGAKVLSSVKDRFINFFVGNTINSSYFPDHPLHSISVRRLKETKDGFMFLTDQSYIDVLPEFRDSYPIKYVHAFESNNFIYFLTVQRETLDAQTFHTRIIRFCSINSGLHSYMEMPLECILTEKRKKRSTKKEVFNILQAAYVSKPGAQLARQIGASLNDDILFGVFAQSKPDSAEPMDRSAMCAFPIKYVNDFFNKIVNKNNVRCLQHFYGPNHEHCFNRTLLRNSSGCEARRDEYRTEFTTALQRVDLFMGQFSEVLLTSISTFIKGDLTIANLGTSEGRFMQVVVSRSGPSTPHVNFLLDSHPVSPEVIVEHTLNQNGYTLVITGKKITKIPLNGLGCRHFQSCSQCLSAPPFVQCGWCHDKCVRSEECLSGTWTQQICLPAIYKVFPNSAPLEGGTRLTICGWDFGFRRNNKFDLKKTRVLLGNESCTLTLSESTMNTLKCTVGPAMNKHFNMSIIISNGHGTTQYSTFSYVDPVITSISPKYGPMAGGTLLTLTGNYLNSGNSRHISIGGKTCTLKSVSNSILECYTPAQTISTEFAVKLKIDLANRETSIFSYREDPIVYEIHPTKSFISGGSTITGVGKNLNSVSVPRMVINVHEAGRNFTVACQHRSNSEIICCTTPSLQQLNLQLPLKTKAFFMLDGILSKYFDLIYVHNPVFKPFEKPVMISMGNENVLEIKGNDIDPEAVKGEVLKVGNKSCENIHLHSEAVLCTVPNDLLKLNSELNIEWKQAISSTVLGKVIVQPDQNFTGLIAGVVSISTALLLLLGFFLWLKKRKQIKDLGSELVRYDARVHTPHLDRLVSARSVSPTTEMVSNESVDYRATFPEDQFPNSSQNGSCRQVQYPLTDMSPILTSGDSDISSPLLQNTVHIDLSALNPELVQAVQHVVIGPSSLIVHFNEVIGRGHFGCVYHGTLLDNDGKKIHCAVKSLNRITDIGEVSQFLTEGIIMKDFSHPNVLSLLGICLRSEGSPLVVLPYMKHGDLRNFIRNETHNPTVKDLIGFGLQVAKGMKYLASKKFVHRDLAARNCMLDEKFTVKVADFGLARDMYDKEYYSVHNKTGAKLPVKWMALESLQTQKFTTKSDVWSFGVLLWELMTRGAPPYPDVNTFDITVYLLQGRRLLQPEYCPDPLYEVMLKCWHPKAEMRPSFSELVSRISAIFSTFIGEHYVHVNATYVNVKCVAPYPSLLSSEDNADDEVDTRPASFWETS
Series [8] addresses Rho-associated protein kinase 2 (Homo sapiens) (UniProt O75116). Description: In vitro percent inhibition of Protein kinase ROCK2 at 10 uM concentration of compound dissolved in 100% DMSO using 5''-[gamma-33P]-triphosphate.
For series [9], the target named is Proto-oncogene tyrosine-protein kinase Src (Homo sapiens) (UniProt P12931). Description: In vitro percent inhibition of c-Src tyrosine kinase at 10 uM concentration of compound dissolved in 100% DMSO using 5''-[gamma-33P]-triphosphate.
In series [10] the target is RAF proto-oncogene serine/threonine-protein kinase (Homo sapiens) (UniProt P04049). Description: In vitro percent inhibition of RAF proto-oncogene serine/threonine-protein kinase at 10 uM concentration of compound dissolved in 100% DMSO using 5''-[gamma-33P]-triphosphate.
The nature of series [11]: In vitro percent inhibition of Cyclin-dependent kinase 2-cyclin A at 10 uM concentration of compound dissolved in 100% DMSO using 5''-[gamma-33P]-triphosphate.
Series [12] concerns the target RAC-alpha serine/threonine-protein kinase (Homo sapiens) (UniProt P31749). Description: In vitro percent inhibition of Protein kinase B, alpha at 10 uM concentration of compound dissolved in 100% DMSO using 5''-[gamma-33P]-triphosphate.
A short description of series [13]: Partition coefficient (logP). In kind it is physicochemical. Conditions: octanol/water.
Series [14] concerns the target Epidermal growth factor receptor (Homo sapiens) (UniProt P00533). Conditions: 10 uM.
The target of series [15] is Tyrosine-protein kinase Lck (Homo sapiens) (UniProt P06239). Description: In vitro percent inhibition of p56 Lck tyrosine kinase at 10 uM concentration of compound dissolved in 100% DMSO using 5''-[gamma-33P]-triphosphate.
Series [16] concerns the target Mitogen-activated protein kinase 3 (Homo sapiens) (UniProt P27361). As to the kind of experiment: In vitro percent inhibition of Mitogen-activated protein kinase 3 at 10 uM concentration of compound dissolved in 100% DMSO using 5''-[gamma-33P]-triphosphate.
Series [17] has as its target Platelet-derived growth factor receptor beta (Homo sapiens) (UniProt P09619). Description: In vitro percent inhibition of Platelet-derived growth factor receptor, beta polypeptide at 10 uM concentration of compound dissolved in 100% DMSO using 5''-[gamma-33P]-triphosphate.
In series [18] the target is Casein kinase I isoform alpha (Homo sapiens) (UniProt P48729). Description: In vitro percent inhibition of Casein kinase 1 alpha at 10 uM concentration of compound dissolved in 100% DMSO using 5''-[gamma-33P]-triphosphate.
Chain of Casein kinase I isoform alpha (Homo sapiens) (P48729 2-337 limits assumed): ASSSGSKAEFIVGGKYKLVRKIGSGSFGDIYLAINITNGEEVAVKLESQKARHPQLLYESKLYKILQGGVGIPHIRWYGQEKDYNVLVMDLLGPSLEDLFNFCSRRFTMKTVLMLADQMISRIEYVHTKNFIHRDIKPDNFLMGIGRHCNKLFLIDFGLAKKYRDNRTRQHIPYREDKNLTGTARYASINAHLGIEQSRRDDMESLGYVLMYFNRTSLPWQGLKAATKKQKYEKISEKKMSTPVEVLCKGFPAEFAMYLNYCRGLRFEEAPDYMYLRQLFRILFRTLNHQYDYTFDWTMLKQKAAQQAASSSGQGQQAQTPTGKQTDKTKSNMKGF
For series [19], the target named is Mitogen-activated protein kinase 8 (Homo sapiens) (UniProt P45983). As to the kind of experiment: In vitro percent inhibition of c-Jun N-terminal kinase 1-alpha 1 at 10 uM concentration of compound dissolved in 100% DMSO using 5''-[gamma-33P]-triphosphate.
Chain of Mitogen-activated protein kinase 8 (Homo sapiens) (P45983 whole entry): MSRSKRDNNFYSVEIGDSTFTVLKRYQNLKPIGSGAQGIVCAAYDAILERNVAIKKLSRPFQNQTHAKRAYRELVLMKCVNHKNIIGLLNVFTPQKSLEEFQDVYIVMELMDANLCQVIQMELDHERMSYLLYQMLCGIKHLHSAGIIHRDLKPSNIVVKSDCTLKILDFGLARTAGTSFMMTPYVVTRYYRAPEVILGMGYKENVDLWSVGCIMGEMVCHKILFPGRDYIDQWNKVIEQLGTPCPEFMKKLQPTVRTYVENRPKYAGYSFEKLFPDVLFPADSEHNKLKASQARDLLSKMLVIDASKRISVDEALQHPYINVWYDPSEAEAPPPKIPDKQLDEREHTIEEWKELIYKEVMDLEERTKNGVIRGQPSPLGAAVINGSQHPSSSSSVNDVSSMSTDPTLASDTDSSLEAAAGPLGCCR
In series [20] the target is Glycogen synthase kinase-3 beta (Homo sapiens) (UniProt P49841). Description: In vitro percent inhibition of Glycogen synthase kinase 3 beta at 10 uM concentration of compound dissolved in 100% DMSO using 5''-[gamma-33P]-triphosphate.
Chain of Glycogen synthase kinase-3 beta (Homo sapiens) (P49841 whole entry, looked up): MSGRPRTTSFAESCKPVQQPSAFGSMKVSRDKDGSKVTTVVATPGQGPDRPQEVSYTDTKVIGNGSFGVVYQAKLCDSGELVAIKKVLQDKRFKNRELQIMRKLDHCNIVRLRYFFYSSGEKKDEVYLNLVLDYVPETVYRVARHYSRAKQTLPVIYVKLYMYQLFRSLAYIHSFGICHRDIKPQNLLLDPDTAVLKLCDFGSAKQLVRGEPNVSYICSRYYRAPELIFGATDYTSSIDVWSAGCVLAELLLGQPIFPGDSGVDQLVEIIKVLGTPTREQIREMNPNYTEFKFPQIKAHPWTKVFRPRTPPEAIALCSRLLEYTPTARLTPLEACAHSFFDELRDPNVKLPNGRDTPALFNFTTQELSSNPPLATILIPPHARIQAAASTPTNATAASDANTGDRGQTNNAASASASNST

Molecules are shown by their SMILES.

Chain of Rho-associated protein kinase 2 (Homo sapiens) (O75116 whole entry, looked up): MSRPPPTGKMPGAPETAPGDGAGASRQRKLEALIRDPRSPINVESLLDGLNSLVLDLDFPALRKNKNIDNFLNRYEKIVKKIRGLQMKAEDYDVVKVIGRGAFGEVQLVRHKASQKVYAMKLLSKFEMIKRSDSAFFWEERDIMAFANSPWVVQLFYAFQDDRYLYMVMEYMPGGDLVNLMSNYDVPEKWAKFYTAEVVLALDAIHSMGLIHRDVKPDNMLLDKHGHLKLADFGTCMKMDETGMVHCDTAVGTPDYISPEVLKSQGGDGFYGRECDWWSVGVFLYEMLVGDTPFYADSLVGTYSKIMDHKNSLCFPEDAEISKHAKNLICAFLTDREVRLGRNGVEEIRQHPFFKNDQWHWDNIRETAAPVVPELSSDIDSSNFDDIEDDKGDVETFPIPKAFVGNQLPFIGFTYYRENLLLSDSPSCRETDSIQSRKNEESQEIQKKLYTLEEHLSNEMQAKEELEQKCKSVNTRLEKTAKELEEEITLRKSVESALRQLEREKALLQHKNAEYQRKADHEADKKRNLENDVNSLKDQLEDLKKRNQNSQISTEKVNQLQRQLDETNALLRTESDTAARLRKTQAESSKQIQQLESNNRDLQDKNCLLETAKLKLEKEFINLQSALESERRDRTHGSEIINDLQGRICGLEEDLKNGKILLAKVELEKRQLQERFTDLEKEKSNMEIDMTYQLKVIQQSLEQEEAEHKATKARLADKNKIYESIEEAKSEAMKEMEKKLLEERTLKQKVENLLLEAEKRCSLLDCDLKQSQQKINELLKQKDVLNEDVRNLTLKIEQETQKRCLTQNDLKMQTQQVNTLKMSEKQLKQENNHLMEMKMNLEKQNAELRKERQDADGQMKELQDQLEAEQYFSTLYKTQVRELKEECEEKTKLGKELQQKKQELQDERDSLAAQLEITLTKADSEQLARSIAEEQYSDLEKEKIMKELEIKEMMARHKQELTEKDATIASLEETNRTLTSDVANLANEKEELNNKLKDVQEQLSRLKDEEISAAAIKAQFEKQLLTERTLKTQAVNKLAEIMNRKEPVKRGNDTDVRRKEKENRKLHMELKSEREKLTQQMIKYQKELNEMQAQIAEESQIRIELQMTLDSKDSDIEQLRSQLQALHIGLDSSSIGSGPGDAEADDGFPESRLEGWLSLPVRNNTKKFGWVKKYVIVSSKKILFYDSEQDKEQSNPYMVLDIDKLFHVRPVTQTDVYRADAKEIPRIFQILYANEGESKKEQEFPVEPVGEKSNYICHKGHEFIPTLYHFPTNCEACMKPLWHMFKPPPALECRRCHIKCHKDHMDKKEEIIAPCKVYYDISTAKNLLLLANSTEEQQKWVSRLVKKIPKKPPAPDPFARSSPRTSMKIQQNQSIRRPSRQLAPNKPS
Chain of Platelet-derived growth factor receptor beta (Homo sapiens) (P09619 whole entry, canonical isoform): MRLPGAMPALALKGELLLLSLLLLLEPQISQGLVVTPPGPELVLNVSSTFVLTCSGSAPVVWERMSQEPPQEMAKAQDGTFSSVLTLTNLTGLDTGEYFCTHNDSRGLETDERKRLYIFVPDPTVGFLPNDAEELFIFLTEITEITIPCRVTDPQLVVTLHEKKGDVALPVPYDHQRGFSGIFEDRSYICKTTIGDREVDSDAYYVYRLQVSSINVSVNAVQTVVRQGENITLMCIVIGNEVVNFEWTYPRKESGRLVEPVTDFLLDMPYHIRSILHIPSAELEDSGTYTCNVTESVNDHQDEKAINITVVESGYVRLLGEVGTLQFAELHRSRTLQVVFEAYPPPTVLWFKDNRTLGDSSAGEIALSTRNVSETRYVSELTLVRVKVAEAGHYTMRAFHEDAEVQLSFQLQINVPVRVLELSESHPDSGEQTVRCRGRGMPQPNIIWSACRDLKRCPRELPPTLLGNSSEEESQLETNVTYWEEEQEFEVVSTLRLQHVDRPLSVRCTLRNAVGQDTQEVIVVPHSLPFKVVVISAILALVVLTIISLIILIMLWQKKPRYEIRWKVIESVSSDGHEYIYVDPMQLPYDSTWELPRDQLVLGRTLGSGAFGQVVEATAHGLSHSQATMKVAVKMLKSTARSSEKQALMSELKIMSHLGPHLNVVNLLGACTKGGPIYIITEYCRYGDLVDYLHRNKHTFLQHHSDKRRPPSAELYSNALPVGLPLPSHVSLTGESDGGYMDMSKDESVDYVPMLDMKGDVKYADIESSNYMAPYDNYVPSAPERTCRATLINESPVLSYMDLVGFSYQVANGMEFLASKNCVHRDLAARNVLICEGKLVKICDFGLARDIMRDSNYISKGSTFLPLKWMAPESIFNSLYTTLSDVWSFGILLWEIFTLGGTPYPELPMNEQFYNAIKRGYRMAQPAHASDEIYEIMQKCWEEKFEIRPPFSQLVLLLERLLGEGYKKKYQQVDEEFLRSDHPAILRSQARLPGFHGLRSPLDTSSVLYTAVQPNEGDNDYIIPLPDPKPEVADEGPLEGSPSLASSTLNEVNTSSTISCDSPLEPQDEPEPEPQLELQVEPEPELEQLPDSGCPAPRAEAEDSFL

Regarding `COc1cc2nc(-c3cccs3)c(-c3cccs3)nc2cc1OC`, the inhibition (usually the relative decrease from the control value, in per cent) in [1] is -2%; in series [2] it was 10%; in [3], -9%; in series [4], -7%; in series [5], 15%; in [6], -6%. For the same compound, the inhibition in [7] is -3%; in series [8], 2%; in [9] it was 10%; in series [10], 11%; in [11], -5%; in [12], -6%. In addition, the inhibition in series [14] is 10%; in [15], 9%; in [16], 10%; in series [17], 7%; in [18], -1%. For the same compound, the logP (usually the decadic logarithm of the partition coefficient of the neutral form, usually between octanol and water) in series [13] was found to be 4.

In the case of `c1csc(-c2nc3cc4ccccc4cc3nc2-c2cccs2)c1`, the inhibition in series [1] turned out to be 4%; in series [19], 6%; in series [20], 6%; in series [2] it was 6%; in series [3], 8%; in series [4], 55%. For the same compound, the inhibition was 6% in series [5]; 8% in [6]; 43% in series [7]; 19% in series [8]; 20% in [9]; 16% in [10]. Besides, the inhibition in series [11] was determined as 3%; in [12], 12%; in [14], 6%; in series [16], 11%; in series [17] it was 15%; in series [18], 7%. In series [13], this compound had a logP of 5.98.

Turning to `COC(=O)Cc1csc(-c2nc3cc4ccccc4cc3nc2-c2cc(CC(=O)OC)cs2)c1`, the inhibition in series [1] was -10%; in [19] it was -10%; in series [20], 2%; in series [2] it was 14%; in [3], -5%; in series [5], 13%. The inhibition in series [6] was 1%; in series [7], -2%; in series [8] it was 4%; in series [9], 8%; in series [10] it was 17%; in series [11], -4%. The inhibition in series [12] was found to be 1%; in series [14], 11%; in [15], 4%; in [16], 11%; in [17] it was 9%; in [18] it was 3%. Also, the logP in [13] was found to be 5.

As for `COc1cc2nc3nc(-c4cccs4)c(-c4cccs4)nc3nc2cc1OC`, the inhibition is -1% in series [1]; 4% in series [20]; 10% in [2]; -2% in series [3]; -7% in series [4]; 48% in series [5]. For the same compound, the inhibition is -4% in series [6]; 12% in series [7]; -1% in series [8]; 9% in series [9]; 8% in [10]; 27% in series [11]. In addition, the inhibition in series [12] is -4%; in [14] it was 20%; in series [15] it was -7%; in series [16], 20%; in series [17], 5%; in series [18], 2%. Besides, the logP in [13] is 4.79.

In the case of `O=C(O)c1ccc2cc3nc(-c4cccs4)c(-c4cccs4)nc3cc2c1`, the inhibition in series [1] was found to be 11%; in series [19], 20%; in series [20] it was 4%; in series [2], 42%; in [3], 5%; in series [4], 42%. The inhibition in [5] was 3%; in [6] it was 56%; in series [7], 49%; in [8] it was 15%; in series [9], 83%; in series [10], 6%. Further, the inhibition was -10% in [12]; 40% in series [14]; 47% in series [15]; 18% in series [16]; 68% in series [17]; 10% in series [18]. In series [13], the logP stood at 5.4.

As to `c1csc(-c2nc3cc4c(cc3nc2-c2cccs2)OCCO4)c1`, the inhibition is 11% in series [1]; 24% in series [19]; 38% in [2]; 48% in series [4]; 19% in series [5]; 46% in [6]. Further, the inhibition in series [7] came to 42%; in series [8], 41%; in series [9], 84%; in series [10] it was 4%; in series [11], 1%; in [14], 34%. Besides, the inhibition in series [15] was found to be 53%; in series [16], 31%; in series [17], 61%; in series [18], 8%. This compound also had a logP in [13] of 5.
